Tests used:
[1] = detection of radiolabelled compound in saliva; format: in vivo
Procedure: For example, in the treatment of adult humans, dosages of from about 0.25 to 50 mg, preferably from 1 to 30 mg, and most preferably 1 to 20 mg per day may be used. A once a day dosage is normally sufficient, although divided doses may be administered. For treatment of cognitive dysfunction, a dose range of from 1 to 30 mg, preferably 1 to 20 mg per day is suitable.

rats = experiment: in vivo animal observation after overdose; design: species or system rat
[2] = test system: muscarinic cholinergic receptor; details: results of pharmacological studies
clinical subjects = experiment: clinical observation of pupil response; details: pupilary dialation was expected

SMILES	detection in saliva [1]	observation in rats exposed to an overdose (rats)	muscarinic cholinergic receptor activity [2]	pupil response in clinical subjects (clinical subjects)
Cc1cc2c(s1)Nc1ccccc1N=C2N1CCN(C)CC1 [2-methyl-4-(4-methyl-1-piperazinyl)-10H-thieno-[2,3-b][1,5]benzodiazepine]	can be detected in the saliva			
Cc1cc2c(s1)Nc1ccccc1N=C2N1CCN(C)CC1		significant salivation	has muscarinic cholinergic receptor activity	pupilary constriction
